Measured values from patent US10294248B2, “Beta-lactamase inhibitors” (VenatoRx Pharmaceuticals, Inc., priority 2013, dated 2019).

Tests used:
[1] = tested on: K. pneumoniae 156319 expressing KPC-3; experiment: Broth microdilution MIC, K. pneumoniae 156319 KPC-3; assay type: cell-based; details: fixed 4 μg/mL meropenem; CAMHB, 16-20 hours at 37° C.
Procedure, shortened: (§1)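 Visual MIC readout follows 16-20 h incubation at 37° C. Final compound range spans 32 down to 0.25 μg/ml in two-fold steps, each well also carrying a β-lactam at a static 4 μg/ml, with inoculation done by the CLSI microdilution method in cation-adjusted Mueller Hinton broth.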

[2] = biological target: T1, SHV-5 β-lactamase (Class A ESBL) (Klebsiella pneumoniae, UniProt P0A3M1); experiment: β-Lactamase inhibition, SHV-5; assay type: biochemical
T1 construct: made in house; host or cells: E. coli BL21(DE3)
T1 sequence (P0A3M1 22-286): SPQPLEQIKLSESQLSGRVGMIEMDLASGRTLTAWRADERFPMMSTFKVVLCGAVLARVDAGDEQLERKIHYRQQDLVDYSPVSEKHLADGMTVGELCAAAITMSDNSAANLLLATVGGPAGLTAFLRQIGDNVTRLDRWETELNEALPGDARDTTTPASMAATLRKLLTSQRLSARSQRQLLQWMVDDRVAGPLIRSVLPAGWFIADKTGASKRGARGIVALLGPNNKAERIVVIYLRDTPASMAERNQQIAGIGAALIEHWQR
Procedure, shortened: (§2)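 IC50 is the inhibitor level cutting initial substrate hydrolysis rate by 50% relative to no-inhibitor controls, after 15 min enzyme–inhibitor preincubation at 37 °C. KPC-2 read with imipenem at 300 nm, SHV-5 with cefotaxime at 260 nm; enzymes were untagged, E. coli-expressed, chromatographically purified.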

[3] = tested on: P. aeruginosa Ps296 expressing VIM-2; experiment: Broth microdilution MIC, P. aeruginosa Ps296 VIM-2; assay type: cell-based; details: fixed 4 μg/mL meropenem; CAMHB, 16-20 hours at 37° C.
Procedure, shortened: as §1

[4] = biological target: T2, p99 AmpC β-lactamase (Class C) (Enterobacter cloacae, UniProt P05364); experiment: β-Lactamase inhibition, p99 AmpC; assay type: biochemical
T2 construct: made in house; host or cells: E. coli BL21(DE3)
T2 sequence (P05364 21-381): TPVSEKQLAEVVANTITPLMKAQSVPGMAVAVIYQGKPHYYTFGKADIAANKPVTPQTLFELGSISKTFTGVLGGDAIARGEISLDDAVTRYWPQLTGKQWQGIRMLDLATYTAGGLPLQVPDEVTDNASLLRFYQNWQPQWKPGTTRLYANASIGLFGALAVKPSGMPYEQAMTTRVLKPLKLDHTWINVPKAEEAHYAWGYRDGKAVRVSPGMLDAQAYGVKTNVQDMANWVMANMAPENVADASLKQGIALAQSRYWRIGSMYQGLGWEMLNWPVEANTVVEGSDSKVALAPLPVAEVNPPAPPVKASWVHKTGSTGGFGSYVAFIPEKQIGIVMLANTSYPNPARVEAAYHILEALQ

[5] = biological target: T3, OXA-1 β-lactamase (Class D oxacillinase) (Escherichia coli, UniProt P13661); experiment: β-Lactamase inhibition, OXA-1; assay type: biochemical; details: nitrocefin 100 μM, 486 nm; 15 min preincubation at 37° C., PBS pH 7.4
T3 construct: made in house; host or cells: E. coli BL21(DE3)
T3 sequence (P13661 26-276): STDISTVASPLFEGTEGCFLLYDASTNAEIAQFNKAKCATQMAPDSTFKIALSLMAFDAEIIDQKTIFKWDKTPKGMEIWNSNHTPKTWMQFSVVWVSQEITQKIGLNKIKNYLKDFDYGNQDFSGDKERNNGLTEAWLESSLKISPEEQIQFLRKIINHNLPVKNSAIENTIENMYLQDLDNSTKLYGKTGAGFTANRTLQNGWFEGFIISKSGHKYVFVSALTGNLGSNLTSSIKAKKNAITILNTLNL
Procedure: For SHV-5, Kpc-2, p99AmpC and OXA-1 β-lactamases, E. coli BL21(DE3) bacterial cells carrying expression plasmids (expressed as native untagged proteins) for the individual β-lactamases were grown in 1 L of Superbroth (Teknova Inc. Hollister, Calif.) supplemented with 100 μg/ml kanamycin selection and 1×5052 (0.5% glycerol, 0.05% glucose and 0.2% α-lactose) at 35° C. for 18-20 hours. Cells were harvested by centrifugation (4,000×g, 4° C., 20 min), resuspended in 50 ml of 10 mM HEPES pH 7.5 ( 1/20 of the initial volume). The cells were lysed by sonication (5 pulses of 45 seconds) at 45 W on ice. The lysates were clarified by centrifugation at 10,000×g for 40 minutes at 4° C. Samples were diluted 5-fold in 50 mM sodium acetate pH 5.0, stored overnight at 4° C., after which they were centrifuged at 10,000×g for 30 minutes to clarify, and filtered through 0.45 μm filters. The samples were loaded onto a 5 ml Capto S sepharose cation exchange column (GE Healthcare) pre-equilibrated with 50 mM sodium acetate pH 5.0. The column was washed with 5 column volumes of 50 mM sodium acetate pH 5.0 to wash out unbound protein and a linear gradient of NaCl (0 to 500 mM) was used to elute the protein (over 16 CV) from the column. Fractions were assayed for β-lactamase activity using Centa (Calbiochem, Gibbstown, N.J.) or Nitrocefin (EMD Millipore chemicals, Darmstadt, Germany) as a reporter β-lactamase substrate for activity in the isolated fractions. Active fractions were pooled, concentrated and further purified by gel filtration chromatography on a Superdex 75 prep grade gel filtration column (GE Healthcare, Piscataway, N.J.) pre-equilibrated in 50 mM Hepes pH 7.5, 150 mM NaCl. Active fractions were pooled concentrated, quantitated by BCA protein determination (Thermo Scientific, Rockford, Ill.), dialyzed into PBS and frozen at −80° C. in 20% glycerol until use.
An equal volume of diluted enzyme stock was added, and the plates were incubated at 37° C. for 15 min. Nitrocefin was used as substrate for p99 AmpC, VIM-2 and OXA-1 and dispensed into each well at a final concentration of 100 μM. Absorbance at 486 nm was immediately monitored for 10 min using a Biotek Powerwave XS2 microplate spectrophotometer using the GEN5 software package (Biotek Instruments, Winooski Vt.). In an analogous fashion, imipenem was used as substrate for Kpc-2 and Cefotaxime was used for SHV-5, while changes in absorbance upon hydrolysis of the β-lactam ring were monitored at 300 nm and 260 nm respectively in UV-transparent 96-well microtiter assay plates. Maximum rates of hydrolysis were compared to those in control wells (without inhibitors), and percentages of enzyme inhibition were calculated for each concentration of inhibitor. The concentration of inhibitor needed to reduce the initial rate of hydrolysis of substrate by 50% (IC50) was calculated as the residual activity of β-lactamase at 486 nm using GraFit version 7 kinetics software package (Erithacus Software, Surrey, UK).
Using the methodology described above, examples of the current invention were evaluated for their ability to inhibit β-lactamase enzymes from all four Ambler classifications (A through D). […] NT=Not tested.

[6] = tested on: K. pneumoniae A-1797 expressing KPC-2 and VIM-4; experiment: Broth microdilution MIC, K. pneumoniae A-1797 KPC-2/VIM-4; assay type: cell-based; details: fixed 4 μg/mL meropenem; CAMHB, 16-20 hours at 37° C.
Procedure, shortened: as §1

[7] = biological target: T4, KPC-2 β-lactamase (Class A carbapenemase) (Klebsiella pneumoniae, UniProt Q9F663); experiment: β-Lactamase inhibition, KPC-2; assay type: biochemical; details: imipenem substrate, 300 nm; 15 min preincubation at 37° C., PBS pH 7.4
T4 construct: made in house; host or cells: E. coli BL21(DE3)
T4 sequence (Q9F663 25-293, looked up): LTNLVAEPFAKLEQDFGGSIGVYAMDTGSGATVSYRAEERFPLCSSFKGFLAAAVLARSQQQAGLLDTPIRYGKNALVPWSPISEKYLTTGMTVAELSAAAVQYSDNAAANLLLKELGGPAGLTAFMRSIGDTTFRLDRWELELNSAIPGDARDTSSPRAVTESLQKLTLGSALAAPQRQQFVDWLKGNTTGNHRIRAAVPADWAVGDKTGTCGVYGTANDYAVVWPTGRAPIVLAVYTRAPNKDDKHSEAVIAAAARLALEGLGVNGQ
Procedure, shortened: as §2

[8] = biological target: T5, VIM-2 metallo-β-lactamase (Class B) (Pseudomonas aeruginosa, UniProt Q9K2N0); experiment: β-Lactamase inhibition, VIM-2; assay type: biochemical; details: nitrocefin 100 μM, 486 nm; 15 min preincubation at 37° C., PBS pH 7.4
T5 construct: made in house; host or cells: E. coli BL21(DE3)
Procedure, shortened: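 Metallo-β-lactamase VIM-2 activity was tracked spectrophotometrically at 486 nm with 100 μM nitrocefin over 10 min, following 15 min preincubation with compound at 37 °C; inhibition was calculated per concentration.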

[9] = tested on: E. coli ESBL4 expressing CTX-M-15; experiment: Broth microdilution MIC, E. coli ESBL4 CTX-M-15; assay type: cell-based; details: fixed 4 μg/mL ceftazidime; CAMHB, 16-20 hours at 37° C.
Procedure, shortened: as §1

[10] = tested on: E. cloacae 144200 expressing Class C P99 AmpC; experiment: Broth microdilution MIC, E. cloacae 144200 p99 AmpC; assay type: cell-based; details: fixed 4 μg/mL ceftazidime; CAMHB, 16-20 hours at 37° C.
Procedure, shortened: as §1

[11] = tested on: S. aureus MSSA-7 producing penicillinase PC-1; experiment: Broth microdilution MIC, S. aureus MSSA-7 PC-1; assay type: cell-based; details: fixed 4 μg/mL piperacillin; CAMHB, 16-20 hours at 37° C.
Procedure, shortened: as §1

SMILES | MIC of example compound in presence of fixed β-lactam: Fixed Mero, K. P. 156319 KPC-3 [1] | IC50 [2] [µM] | MIC of example compound in presence of fixed β-lactam: Fixed Mero, P. aerug. Ps296 VIM-2 [3] | IC50 [4] [µM] | IC50 [5] [µM] | MIC of example compound in presence of fixed β-lactam: Fixed Mero, K. P. A-1797 KPC-2 VIM-4 [6] | IC50 [7] [µM] | IC50 [8] [µM] | MIC of example compound in presence of fixed β-lactam: Fixed CAZ, E. coli ESBL4 CTX-M-15 [9] | MIC of example compound in presence of fixed β-lactam: Fixed CAZ, E. cl. 144200 p99 AmpC [10] | MIC of example compound in presence of fixed β-lactam: Fixed Pip, S. aureus MSSA-7 PC-1 [11]
CN(CC(=O)N[C@H]1Cc2cccc(C(=O)O)c2OB1O)C1CCNCC1 [Example 43, 2-Hydroxy-3-[2-(methyl-piperidin-4-yl-amino)-acetylamino]-3,4-dihydro-2H-benzo[e][1,2]oxaborinine-8-carboxylic acid] | C (the MIC in the presence of <4 μg/mL of a β-lactamase inhibitor) | < 0.1 | C (the MIC in the presence of <4 μg/mL of a β-lactamase inhibitor) | < 0.1 | < 0.1 | C (the MIC in the presence of <4 μg/mL of a β-lactamase inhibitor) | < 0.1 | 0.1 to 1 | C (the MIC in the presence of <4 μg/mL of a β-lactamase inhibitor) | C (the MIC in the presence of <4 μg/mL of a β-lactamase inhibitor) | C (the MIC in the presence of <4 μg/mL of a β-lactamase inhibitor)
O=C(CC1CCNCC1)N[C@H]1Cc2cccc(C(=O)O)c2OB1O [Example 32, 2-Hydroxy-3-(2-piperidin-4-yl-acetylamino)-3,4-dihydro-2H-benzo[e][1,2]oxaborinine-8-carboxylic acid] | A (an MIC of the fixed β-lactam antibiotic in the presence of >32 μg/mL of a β-lactamase inhibitor) | 10 to 100 | A (an MIC of the fixed β-lactam antibiotic in the presence of >32 μg/mL of a β-lactamase inhibitor) | < 0.1 | 0.1 to 1 | A (an MIC of the fixed β-lactam antibiotic in the presence of >32 μg/mL of a β-lactamase inhibitor) | 0.1 to 1 | 10 to 100 | C (the MIC in the presence of <4 μg/mL of a β-lactamase inhibitor) | C (the MIC in the presence of <4 μg/mL of a β-lactamase inhibitor) | C (the MIC in the presence of <4 μg/mL of a β-lactamase inhibitor)
N=C(N)NCC1CCCN(CC(=O)N[C@H]2Cc3cccc(C(=O)O)c3OB2O)C1 (stereo partly shown) [Example 37, 3-[2-(3-Guanidinomethyl-piperidin-1-yl)-acetylamino]-2-hydroxy-3,4-dihydro-2H-benzo[e][1,2]oxaborinine-8-carboxylic acid] | C (the MIC in the presence of <4 μg/mL of a β-lactamase inhibitor) | 0.1 to 1 | A (an MIC of the fixed β-lactam antibiotic in the presence of >32 μg/mL of a β-lactamase inhibitor) | < 0.1 | 0.1 to 1 | B (the MIC in the presence of between 8 and 32 μg/mL of a β-lactamase inhibitor) | 0.1 to 1 | 0.1 to 1 | C (the MIC in the presence of <4 μg/mL of a β-lactamase inhibitor) | C (the MIC in the presence of <4 μg/mL of a β-lactamase inhibitor) | C (the MIC in the presence of <4 μg/mL of a β-lactamase inhibitor)
NCCN1CCC(NCC(=O)N[C@H]2Cc3cccc(C(=O)O)c3OB2O)CC1 [Example 52, 3-{2-[1-(2-Amino-ethyl)-piperidin-4-ylamino]-acetylamino}-2-hydroxy-3,4-dihydro-2H-benzo[e][1,2]oxaborinine-8-carboxylic acid] | C (the MIC in the presence of <4 μg/mL of a β-lactamase inhibitor) | < 0.1 | B (the MIC in the presence of between 8 and 32 μg/mL of a β-lactamase inhibitor) | < 0.1 | < 0.1 | B (the MIC in the presence of between 8 and 32 μg/mL of a β-lactamase inhibitor) | < 0.1 | 1 to 10 | C (the MIC in the presence of <4 μg/mL of a β-lactamase inhibitor) | C (the MIC in the presence of <4 μg/mL of a β-lactamase inhibitor) | C (the MIC in the presence of <4 μg/mL of a β-lactamase inhibitor)
CN1CCC(C(=O)N[C@H]2Cc3cccc(C(=O)O)c3OB2O)(N(C)C)CC1 [Example 51, 3-[(4-Dimethylamino-1-methyl-piperidine-4-carbonyl)-amino]-2-hydroxy-3,4-dihydro-2H-benzo[e][1,2]oxaborinine-8-carboxylic acid] | C (the MIC in the presence of <4 μg/mL of a β-lactamase inhibitor) | 1 to 10 | C (the MIC in the presence of <4 μg/mL of a β-lactamase inhibitor) | < 0.1 | 0.1 to 1 | A (an MIC of the fixed β-lactam antibiotic in the presence of >32 μg/mL of a β-lactamase inhibitor) | < 0.1 | 1 to 10 | C (the MIC in the presence of <4 μg/mL of a β-lactamase inhibitor) | C (the MIC in the presence of <4 μg/mL of a β-lactamase inhibitor) | C (the MIC in the presence of <4 μg/mL of a β-lactamase inhibitor)
